This note sets out measurements from patent US9079866B2, “Flap modulators” (JANSSEN PHARMACEUTICA NV, priority 2013, dated 2015).

One test concerns the target human FLAP (Homo sapiens (Human), UniProt P20292). The test is described as follows: FLAP binding assay (HTRF format). The method, boiled down: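 Reported data take the mean of two different plates carrying duplicate samples and use the HTRF ratio as the measured signal.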
(In TR-FRET formats the signal depends on donor and acceptor labels being close together.)

In test [1] the test system is leukotriene pathway in human whole blood (LTB4 levels). The test is described as follows: Human whole blood assay (A23187-stimulated LTB4). The class given is cell-based. As to conditions: Homo sapiens, human whole blood diluted 1:1, A23187-stimulated; read-out: LTB4 IC50 1:1. The method, boiled down: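 Single-replicate data from at least one healthy donor: compound pre-incubated 15 min at 37° Celsius in 1:1 RPMI-diluted heparinised blood, followed by 30 min calcium ionophore A23187 (7 μg/mL) challenge at 37° Celsius. LTB4 in plasma quantified by kit; IC50 via 4-parameter equation.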

The mark [2] stands for this setting: read-out: FLAP Binding wild type HTRF Ki.

Counter-ions that a name gives are not always drawn. Like-named read-outs stand apart in the source and are kept apart here.

Usually Ki stands for the dissociation constant of the complex between target and ligand, obtained from inhibition or displacement. The IC50 is the concentration at which inhibition is half-maximal.

Chain of human FLAP (P20292 whole entry): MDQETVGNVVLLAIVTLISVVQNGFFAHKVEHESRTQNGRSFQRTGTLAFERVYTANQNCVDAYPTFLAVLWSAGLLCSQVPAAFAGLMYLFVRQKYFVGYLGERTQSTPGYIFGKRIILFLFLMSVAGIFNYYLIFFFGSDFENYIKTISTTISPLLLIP

Turning to `C[C@@H](CO)NC(=O)c1cc(C(F)(F)F)ccc1-c1ccc(-c2cnc(N)cn2)c(F)c1` [Example 786, 2-[4-(5-Aminopyrazin-2-yl)-3-fluoro-phenyl]-N-[(1S)-2-hydroxy-1-methyl-ethyl]-5-(trifluoromethyl)benzamide], on human FLAP (wild type FLAP, HTRF format), the Ki amounted to 60.7 nM. Besides, in test [1], the half-inhibitory concentration (IC50) is 105 nM.
The like results for `C[C@@H](NC(=O)c1cc(C(F)(F)F)ccc1-c1ccc(-c2cnc(N)cn2)c(F)c1)C(F)(F)F` [Example 787, 2-[4-(5-Aminopyrazin-2-yl)-3-fluoro-phenyl]-5-(trifluoromethyl)-N-[(1R)-2,2,2-trifluoro-1-methyl-ethyl]benzamide] were, in that order, 9.1 nM and 97.9 nM.
In the same order, the values of `C[C@H](NC(=O)c1cc(C(F)(F)F)ccc1-c1ccc(-c2cnc(N)nc2)c(F)c1)C(F)(F)F` [Example 788, 2-[4-(2-Aminopyrimidin-5-yl)-3-fluoro-phenyl]-5-(trifluoromethyl)-N-[(1S)-2,2,2-trifluoro-1-methyl-ethyl]benzamide] are 17.8 nM and 272 nM.
`C[C@@H](NC(=O)c1cc(C(F)(F)F)ccc1-c1ccc(-c2cnc(N)nc2)c(F)c1)C(F)(F)F` [Example 789, 2-[4-(2-Aminopyrimidin-5-yl)-3-fluoro-phenyl]-5-(trifluoromethyl)-N-[(1R)-2,2,2-trifluoro-1-methyl-ethyl]benzamide]: the inhibition constant Ki on human FLAP (wild type FLAP, HTRF format) stood at 130 nM. In addition, in test [1], the half-inhibitory concentration (IC50) was determined as 939 nM.
The like results for `C[C@H](NC(=O)c1cc(C(F)(F)F)ccc1-c1ccc(-c2cnc(N)cn2)c(F)c1)C(F)(F)F` [Example 790, 2-[4-(5-Aminopyrazin-2-yl)-3-fluoro-phenyl]-5-(trifluoromethyl)-N-[(1S)-2,2,2-trifluoro-1-methyl-ethyl]benzamide] were, in that order, 1.5 nM and 25.3 nM.
The like results for `Nc1ncc(-c2ccc(-c3ccc(C(F)(F)F)cc3C(=O)N3CCS(=O)(=O)CC3)cc2F)cn1` [Example 793, [2-[4-(2-Aminopyrimidin-5-yl)-3-fluoro-phenyl]-5-(trifluoromethyl)phenyl]-(1,1-dioxo-1,4-thiazinan-4-yl)methanone] were, in that order, 280 nM and 642 nM.
In the same order, the values of `CC(C)(C)NC(=O)c1cc(C(F)(F)F)ccc1-c1ccc(-c2cnc(N)nc2)c(F)c1` [Example 794, 2-[4-(2-Aminopyrimidin-5-yl)-3-fluoro-phenyl]-N-tert-butyl-5-(trifluoromethyl)benzamide] are 32.8 nM and 3940 nM.
`Nc1cnc(-c2ccc(-c3ccc(C(F)(F)F)cc3C(=O)N3CCC(O)CC3)cc2F)cn1` [Example 795, [2-[4-(5-Aminopyrazin-2-yl)-3-fluoro-phenyl]-5-(trifluoromethyl)phenyl]-(4-hydroxy-1-piperidyl)methanone] had an inhibition constant (Ki) on human FLAP (wild type FLAP, HTRF format) of 8.5 nM. Also, the IC50 in test [1] amounted to 68.6 nM.
The like results for `CC(C)(C)C(=O)Nc1ncccc1-c1ccc(-c2cnc3[nH]ccc3c2)c(F)c1` [Example 802, N-{3-[3-Fluoro-4-(1H-pyrrolo[2,3-b]pyridin-5-yl)phenyl]pyridin-2-yl}-2,2-dimethylpropanamide] were, in that order, more than 10000 nM and 0.994 nM.
As to `Nc1ncc(-c2ccc(-c3cccnc3S(=O)(=O)C3CCC3)cc2F)cn1` [Example 805, 5-(4-(2-(Cyclobutylsulfonyl)pyridin-3-yl)-2-fluorophenyl)pyrimidin-2-amine hydrochloride], the Ki on human FLAP (wild type FLAP, HTRF format) is 29.7 nM. Moreover, the IC50 in test [1] is 353 nM.
In the same order, the values of `Nc1cnc(-c2ccc(-c3cccnc3S(=O)(=O)C3CCC3)cc2F)cn1` [Example 806, 5-(4-(2-(Cyclobutylsulfonyl)pyridin-3-yl)-2-fluorophenyl)pyrazin-2-amine hydrochloride] are 1.8 nM and 48.4 nM.
Turning to `Nc1ncc(-c2ccc(-c3cccnc3S(=O)(=O)C3CCCCC3)cc2F)cn1` [Example 807, 5-(4-(2-(Cyclohexlsulfonyl)pyridin-3-yl)-2-fluorophenyl)pyrimidin-2-amine hydrochloride], the Ki at human FLAP (setting [2]) came to 5.8 nM. In test [1], the concentration for half-maximal inhibition (IC50) is 72.2 nM.
For `Nc1cnc(-c2ccc(-c3cccnc3S(=O)(=O)C3CCCCC3)cc2F)cn1` [Example 808, 5-(4-(2-(Cyclohexylsulfonyl)pyridin-3-yl)-2-fluorophenyl)pyrazin-2-amine hydrochloride], affinity on human FLAP (wild type FLAP, HTRF format) was put at a Ki of 0.4 nM. The half-maximal inhibitory concentration (IC50) in test [1] amounted to 6.37 nM.
For `Nc1ncc(-c2ccc(-c3cccnc3S(=O)(=O)C3CCCC3)cc2F)cn1` [Example 809, 5-(4-(2-(Cyclopentylsulfonyl)pyridin-3-yl)-2-fluorophenyl)pyrimidine-2-amine hydrochloride], affinity on human FLAP (wild type FLAP, HTRF format) was put at a Ki of 3.8 nM. Also, in test [1], the IC50 came out at 37.7 nM.
In the same order, the values of `Nc1cnc(-c2ccc(-c3cccnc3S(=O)(=O)C3CCCC3)cc2F)cn1` [Example 810, 5-(4-(2-(Cyclopentylsulfonyl)pyridin-3-yl)-2-fluorophenyl)pyrazin-2-amine hydrochloride] are 0.6 nM and 5.64 nM.
Turning to `CC(C)(C)S(=O)(=O)c1ncccc1-c1ccc(-c2cnc(N)nc2)c(F)c1` [Example 811, 5-(4-(2-(tert-Butylsulfonyl)pyridin-3-yl)-2-fluorophenyl)pyrimidin-2-amine formic acid salt], on human FLAP (setting [2]), the Ki stood at 315 nM. Besides, in test [1], the IC50 was found to be 541 nM.
In the same order, the values of `CC(C)(C)S(=O)(=O)c1ncccc1-c1ccc(-c2cnc(N)cn2)c(F)c1` [Example 812, 5-(4-(2-(tert-Butylsulfonyl)pyridin-3-yl)-2-fluorophenyl)pyrazin-2-amine formic acid salt] are 8.5 nM and 12 nM.
As to `CC(=O)N1CCC(S(=O)(=O)c2ncccc2-c2ccc(-c3cnc(N)nc3)c(F)c2)CC1` [Example 815], on human FLAP (wild type FLAP, HTRF format), the affinity corresponds to a Ki of 256 nM. Further, the IC50 in test [1] turned out to be 128 nM.
The like results for `CC(=O)N1CCC(S(=O)(=O)c2ncccc2-c2ccc(-c3cnc(N)cn3)c(F)c2)CC1` [Example 816, 1-((3-(4-(2-Aminopyrazin-5-yl)-3-fluorophenyl)pyridine-2-yl)sulfonyl)piperidin-1-yl)ethanone hydrogen chloride salt] were, in that order, 21.8 nM and 46 nM.
In the same order, the values of `COCCCS(=O)(=O)c1ncccc1-c1ccc(-c2cnc(N)cn2)c(F)c1` [Example 818, 5-(2-Fluoro-4-(2-((3-methoxypropyl)sulfonyl)pyridine-3-yl)phenyl)pyrazin-2-amine hydrogen chloride salt] are 27.2 nM and 51.6 nM.
The like results for `Nc1ncc(-c2ccc(-c3cccnc3S(=O)(=O)C3CCS(=O)(=O)CC3)cc2F)cn1` [Example 819, 4-((3-(4-(2-aminopyrimidin-5-yl)-3-fluorophenyl)pyridine-2-yl)sulfonyl)tetrahydro-2H-thiopyran 1,1-dioxide] were, in that order, 40.5 nM and 47.5 nM.
In turn, `Nc1cnc(-c2ccc(-c3cccnc3S(=O)(=O)C3CCS(=O)(=O)CC3)cc2F)cn1` [Example 820, 4-((3-(4-(2-Aminopyrazin-5-yl)-3-fluorophenyl)pyridine-2-yl)sulfonyl)tetrahydro-2H-thiopyran 1,1-dioxide] had an inhibition constant (Ki) at human FLAP (wild type FLAP, HTRF format) of 3.3 nM. Further, the half-maximal inhibitory concentration (IC50) in test [1] came out at 41.6 nM.
